Experimental data: the NIST ThermoML archive (doi:10.1021/acs.jced.8b00692)
Where “and” joins values, the source holds several entries; their conditions need not be identical. Identical values can stand only once.

How the values were obtained:
[1] = Liquid; for viscosity: Concentric cylinders viscometry; for speed of sound: Single path-length method; for mass density: Vibrating tube method
[2] = xn = mol fraction of the nth substance listed; conditions: 102 kPa, Liquid, x2 = 0; for viscosity: Concentric cylinders viscometry; for speed of sound: Frequency=3 MHz, Single path-length method; for mass density: Vibrating tube method

CCCC1CCCCC1 [1-cyclohexylpropane]
[1], 102 kPa
Conditions | mass density [kg/m3] | viscosity [mPa·s]
293.15 K | 793.54 | 0.996
303.15 K | 785.73 | 0.86
313.15 K | 777.9 | 0.75
323.15 K | 770.04 | 0.663
333.15 K | 762.12 | 0.584
343.15 K | 754.2 | 0.544
353.15 K | 746.1 | 0.477
363.15 K | 738 | 0.452

[1], 102 kPa, Frequency=3 MHz
Conditions | speed of sound [m/s]
293.15 K | 1307.8
303.15 K | 1266.2
313.15 K | 1225.6
323.15 K | 1185.9
333.15 K | 1147.3

CCCCCCCCCCC1CCCCC1 [decylcyclohexane]
[1], 102 kPa
Conditions | mass density [kg/m3] | viscosity [mPa·s]
293.15 K | 818.55 | 5.32
303.15 K | 811.78 | 4.09
313.15 K | 805.02 | 3.23
323.15 K | 798.27 | 2.62
333.15 K | 791.5 | 2.16
343.15 K | 784.8 | 1.82
353.15 K | 778 | 1.55
363.15 K | 771.2 | 1.34
373.15 K | 764.4 | 1.17

[1], 102 kPa, Frequency=3 MHz
Conditions | speed of sound [m/s]
293.15 K | 1406.7
303.15 K | 1369.4
313.15 K | 1333
323.15 K | 1297.5
333.15 K | 1262.9

CCCCCCCCCCCCC1CCCCC1 [dodecylcyclohexane]
[1], 102 kPa
Conditions | mass density [kg/m3] | viscosity [mPa·s]
293.15 K | 822.31 | 7.76
303.15 K | 815.65 | 5.81
313.15 K | 809.01 | 4.48
323.15 K | 802.37 | 3.55
333.15 K | 795.74 | 2.88
343.15 K | 789.1 | 2.39
353.15 K | 782.5 | 2.01
363.15 K | 775.9 | 1.72
373.15 K | 769.2 | 1.48

[1], 102 kPa, Frequency=3 MHz
Conditions | speed of sound [m/s]
293.15 K | 1423.3
303.15 K | 1386.3
313.15 K | 1350.4
323.15 K | 1315.2
333.15 K | 1281.1

CCCCCCCC1CCCCC1 [heptylcyclohexane]
[1], 102 kPa
Conditions | mass density [kg/m3] | viscosity [mPa·s]
293.15 K | 810.99 | 2.8
303.15 K | 803.96 | 2.26
313.15 K | 796.93 | 1.86
323.15 K | 789.89 | 1.56
333.15 K | 782.83 | 1.33
343.15 K | 775.8 | 1.15
353.15 K | 768.7 | 0.993
363.15 K | 761.6 | 0.892
373.15 K | 754.4 | 0.776

[1], 102 kPa, Frequency=3 MHz
Conditions | speed of sound [m/s]
293.15 K | 1374.4
303.15 K | 1336.1
313.15 K | 1298.7
323.15 K | 1262.1
333.15 K | 1226.5

CCCCCCCCCCCCCCCC [hexadecane]
[1]
Conditions | mass density, 102 kPa | speed of sound, 101.33 kPa [m/s] | viscosity, 102 kPa [mPa·s]
293.15 K | 773.37 kg/m3 | 1357.4 | 3.47
303.15 K | 766.43 kg/m3 | 1319.6 | 2.76
313.15 K | 759.51 kg/m3 | 1282.9 | 2.24
323.15 K | 752.61 kg/m3 | 1247 | 1.86
333.15 K | 745.69 kg/m3 | 1212.1 | 1.56
343.15 K | 738.78 kg/m3 and 738.8 kg/m3 | – | 1.35
353.15 K | 731.9 kg/m3 | – | 1.15
363.15 K | 724.9 kg/m3 | – | 1.02
373.15 K | 717.9 kg/m3 | – | 0.885

CCCCCCCCCCCCCCCC [hexadecane] + CCCC1CCCCC1
[2]
Conditions | mass density [kg/m3] | speed of sound [m/s] | viscosity [mPa·s]
293.15 K | 773.37 | 1357.4 | 3.47
303.15 K | 766.43 | 1319.6 | 2.76
313.15 K | 759.51 | 1282.9 | 2.24
323.15 K | 752.61 | 1247 | 1.86
333.15 K | 745.69 | 1212.1 | 1.56
343.15 K | 738.78 | – | 1.35
353.15 K | 731.9 | – | 1.15
363.15 K | 724.9 | – | 1.02

CCCCCCCCCCCCCCCC [hexadecane] + CCCCCCC1CCCCC1
[2]
Conditions | mass density [kg/m3] | viscosity [mPa·s]
293.15 K | 773.37 | 3.47
303.15 K | 766.43 | 2.76
313.15 K | 759.51 | 2.24
323.15 K | 752.61 | 1.86
333.15 K | 745.69 | 1.56
343.15 K | 738.8 | 1.35
353.15 K | 731.9 | 1.15
363.15 K | 724.9 | 1.02

CCCCCCCCCCCCCCCC [hexadecane] + CCCCCCCC1CCCCC1
[2]
Conditions | mass density [kg/m3] | viscosity [mPa·s]
293.15 K | 773.37 | 3.47
303.15 K | 766.43 | 2.76
313.15 K | 759.51 | 2.24
323.15 K | 752.61 | 1.86
333.15 K | 745.69 | 1.56
343.15 K | 738.8 | 1.35
353.15 K | 731.9 | 1.15
363.15 K | 724.9 | 1.02
373.15 K | 717.9 | 0.885
